Patent US7074447B2 (Laboratories Miret, S.A., priority 2001, dated 2006)

What was measured:
Assay in all cases: minimum inhibition concentration and Kull synergy index of LAE / potassium sorbate
Format in all cases: cell-based
[1] = tested on: Candida albicans (ATCC 10231); conditions: for SI, synergy index: <1 synergism, 1 addition, >1 antagonism
Description: The invention is now explained by a number of examples. In these examples LAE and sorbate alone and in a number of different combinations have been investigated against a number of bacterial preparations. For the analysis usually an internal method was used. […] The interaction of the two components of the antimicrobial mixture is calculated according to the method described by Kull et al. (Kull […]. and Mayer R. L., Applied Microbiology, 1961; 6:538-541). According to this method the so-called synergy index is calculated according to the following formula: Synergy index […]. […] The same method was used as described for example 1. […] Again the effects of the components alone and in combination have been calculated using the same method as described at Example 1.

[2] = tested on: Staphylococcus aureus (ATCC 6538); conditions: for SI, synergy index: <1 synergism, 1 addition, >1 antagonism
Description: (§1) The invention is now explained by a number of examples. In these examples LAE and sorbate alone and in a number of different combinations have been investigated against a number of bacterial preparations. For the analysis usually an internal method was used. Conditions and medium were Mueller Hinton broth (pH 7.4) or (pH 5.0) for bacteria, Sabouraud broth (pH 5.8) for yeast and Sabouraud medium for moulds. The interaction of the two components of the antimicrobial mixture is calculated according to the method described by Kull et al. (Kull […]. and Mayer R. L., Applied Microbiology, 1961; 6:538-541). According to this method the so-called synergy index is calculated according to the following formula: Synergy index […]. […] Again the effects of the components alone and in combination have been calculated using the same method as described at Example 1.

[3] = tested on: Bacillus megaterium (CECT 44); conditions: pH 7.4, aqueous solutions
Description: as §1

[4] = tested on: Bacillus subtilis (CECT 356); conditions: for SI, synergy index: <1 synergism, 1 addition, >1 antagonism
Description: The invention is now explained by a number of examples. In these examples LAE and sorbate alone and in a number of different combinations have been investigated against a number of bacterial preparations. For the analysis usually an internal method was used. Conditions and medium were Mueller Hinton broth (pH 7.4) or (pH 5.0) for bacteria, Sabouraud broth (pH 5.8) for yeast and Sabouraud medium for moulds. […] The interaction of the two components of the antimicrobial mixture is calculated according to the method described by Kull et al. (Kull […]. and Mayer R. L., Applied Microbiology, 1961; 6:538-541). According to this method the so-called synergy index is calculated according to the following formula: Synergy index […]. […] All indicated symbols indicate a particular concentration leading to a particular end point, in this case the inhibition of growth of Bacillus subtilis, so that the selected end point is in fact the minimal inhibitory concentration (mic).

[5] = tested on: Cladosporium cladosporioides (ATCC 16022); conditions: for SI, synergy index: <1 synergism, 1 addition, >1 antagonism
Description: (§2) The invention is now explained by a number of examples. In these examples LAE and sorbate alone and in a number of different combinations have been investigated against a number of bacterial preparations. For the analysis usually an internal method was used. Conditions and medium were Mueller Hinton broth (pH 7.4) or (pH 5.0) for bacteria, Sabouraud broth (pH 5.8) for yeast and Sabouraud medium for moulds. The interaction of the two components of the antimicrobial mixture is calculated according to the method described by Kull et al. (Kull […]. and Mayer R. L., Applied Microbiology, 1961; 6:538-541). According to this method the so-called synergy index is calculated according to the following formula: Synergy index […]. […] The same method was used as described for example 1. […] Again the effects of the components alone and in combination have been calculated using the same method as described at Example 1.

[6] = tested on: Escherichia coli (ATCC 8739); conditions: for SI, synergy index: <1 synergism, 1 addition, >1 antagonism
Description: as §2

[7] = tested on: Enterobacter aerogenes (ATCC 13048); conditions: for SI, synergy index: <1 synergism, 1 addition, >1 antagonism
Description: as §2

[8] = tested on: Citrobacter intermedium (CECT 401); conditions: for SI, synergy index: <1 synergism, 1 addition, >1 antagonism
Description: as §2

[9] = tested on: Penicillium camemberti (CECT 2267); conditions: for SI, synergy index: <1 synergism, 1 addition, >1 antagonism
Description: as §2

[10] = pH 7.4, propylene glycol solutions

## C/C=C/C=C/C(=O)[O-].[K+] [potassium sorbate]
[1]; pH 5.0
  QS, minimum inhibition concentration of potassium sorbate as single antimicrobial: 1024
  Qlae, minimum inhibition concentration of LAE in the mixture: 0
  Qlae/QLAE: 0
  Qs, minimum inhibition concentration of potassium sorbate in the mixture: 1024.00
  Qs/QS: 1.00
  SI, synergy index: 1.00
[1]; pH 7.4, aqueous solutions
  QS, minimum inhibition concentration of potassium sorbate as single antimicrobial: 1024
  Qlae, minimum inhibition concentration of LAE in the mixture: 0
  Qlae/QLAE: 0
  Qs, minimum inhibition concentration of potassium sorbate in the mixture: 1024.00
  Qs/QS: 1.00
  SI, synergy index: 1.00
[2]; pH 5.0
  QS, minimum inhibition concentration of potassium sorbate as single antimicrobial: 1024
  Qlae, minimum inhibition concentration of LAE in the mixture: 0
  Qlae/QLAE: 0
  Qs, minimum inhibition concentration of potassium sorbate in the mixture: 1024.00
  Qs/QS: 1.00
  SI, synergy index: 1.00
[2]; pH 7.4, aqueous solutions
  QS, minimum inhibition concentration of potassium sorbate as single antimicrobial: 1536
  Qlae, minimum inhibition concentration of LAE in the mixture: 0
  Qlae/QLAE: 0.0
  Qs, minimum inhibition concentration of potassium sorbate in the mixture: 1536
  Qs/QS: 1.00
  SI, synergy index: 1.00
[3]
  QS, minimum inhibition concentration of potassium sorbate as single antimicrobial: 1024
  Qlae, minimum inhibition concentration of LAE in the mixture: 0
  Qlae/QLAE: 0
  Qs, minimum inhibition concentration of potassium sorbate in the mixture: 1024
  Qs/QS: 1.00
[3]; <1 synergism, 1 addition, >1 antagonism
  SI, synergy index: 1.00
[4]; pH 5.0
  QS, minimum inhibition concentration of potassium sorbate as single antimicrobial: 1024
  Qlae, minimum inhibition concentration of LAE in the mixture: 0
  Qlae/QLAE: 0
  Qs, minimum inhibition concentration of potassium sorbate in the mixture: 1024.00
  Qs/QS: 1.00
  SI, synergy index: 1.00
[4]; [10]
  QS, minimum inhibition concentration of potassium sorbate as single antimicrobial: 1024
  Qlae, minimum inhibition concentration of LAE in the mixture: 0
  Qlae/QLAE: 0
  Qs, minimum inhibition concentration of potassium sorbate in the mixture: 1024
  Qs/QS: 1.00
  SI, synergy index: 1.00
[5]; pH 5.0
  QS, minimum inhibition concentration of potassium sorbate as single antimicrobial: 1024
  Qlae, minimum inhibition concentration of LAE in the mixture: 0
  Qlae/QLAE: 0
  Qs, minimum inhibition concentration of potassium sorbate in the mixture: 1024.00
  Qs/QS: 1.00
  SI, synergy index: 1.00
[5]; pH 7.4, aqueous solutions
  QS, minimum inhibition concentration of potassium sorbate as single antimicrobial: 1024
  Qlae, minimum inhibition concentration of LAE in the mixture: 0
  Qlae/QLAE: 0.00
  Qs, minimum inhibition concentration of potassium sorbate in the mixture: 1024
  Qs/QS: 1.00
  SI, synergy index: 1.00
[6]; pH 5.0
  QS, minimum inhibition concentration of potassium sorbate as single antimicrobial: 1024
  Qlae, minimum inhibition concentration of LAE in the mixture: 0
  Qlae/QLAE: 0
  Qs, minimum inhibition concentration of potassium sorbate in the mixture: 1024.00
  Qs/QS: 1.00
  SI, synergy index: 1.00
[6]; pH 7.4, aqueous solutions
  QS, minimum inhibition concentration of potassium sorbate as single antimicrobial: 1536
  Qlae, minimum inhibition concentration of LAE in the mixture: 0
  Qlae/QLAE: 0
  Qs, minimum inhibition concentration of potassium sorbate in the mixture: 1536
  Qs/QS: 1.00
  SI, synergy index: 1.00
[7]; pH 5.0
  QS, minimum inhibition concentration of potassium sorbate as single antimicrobial: 1024
  Qlae, minimum inhibition concentration of LAE in the mixture: 0
  Qlae/QLAE: 0
  Qs, minimum inhibition concentration of potassium sorbate in the mixture: 1024.00
  Qs/QS: 1.00
  SI, synergy index: 1.00
[7]; pH 7.4, aqueous solutions
  QS, minimum inhibition concentration of potassium sorbate as single antimicrobial: 1536
  Qlae, minimum inhibition concentration of LAE in the mixture: 0
  Qs, minimum inhibition concentration of potassium sorbate in the mixture: 1536
  Qs/QS: 1.00
  SI, synergy index: 1.00
[8]; pH 5.0
  QS, minimum inhibition concentration of potassium sorbate as single antimicrobial: 512
  Qlae, minimum inhibition concentration of LAE in the mixture: 0
  Qlae/QLAE: 0
  Qs, minimum inhibition concentration of potassium sorbate in the mixture: 1024.00
  Qs/QS: 1.00
  SI, synergy index: 1.00
[8]; pH 7.4, aqueous solutions
  QS, minimum inhibition concentration of potassium sorbate as single antimicrobial: 1536
  Qlae, minimum inhibition concentration of LAE in the mixture: 0
  Qlae/QLAE: 0
  Qs, minimum inhibition concentration of potassium sorbate in the mixture: 1536
  Qs/QS: 1.00
  SI, synergy index: 1.00
[9]; pH 5.0
  QS, minimum inhibition concentration of potassium sorbate as single antimicrobial: 1024
  Qlae, minimum inhibition concentration of LAE in the mixture: 0
  Qlae/QLAE: 0
  Qs, minimum inhibition concentration of potassium sorbate in the mixture: 1024.00
  Qs/QS: 1.00
  SI, synergy index: 1.00
[9]; pH 7.4, aqueous solutions
  QS, minimum inhibition concentration of potassium sorbate as single antimicrobial: 2048
  Qlae, minimum inhibition concentration of LAE in the mixture: 0
  Qlae/QLAE: 0
  Qs, minimum inhibition concentration of potassium sorbate in the mixture: 2048
  Qs/QS: 1.00
  SI, synergy index: 1.00
